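Step 1: Grow cells in 96-well plates. Step 2: Expose to compound for 48 hours at 5 concentrations. Step 3: Interpolate endpoints linearly; if unreached, use highest concentration. GI50: concentration for 50% inhibition of growth. At the TGI there is no net growth.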
Tests used:
Test in all cases: DTP human tumour cell line panel, 48 h; in the data active = GI50 below about 0.43 µM; inactive = the rest
SNB-75 CNS = system: SNB-75 CNS
MDA-MB-435 = system: MDA-MB-435
IGROV1 ovarian = system: IGROV1 ovarian
SK-MEL-28 melanoma = system: SK-MEL-28 melanoma
M14 melanoma = system: M14 melanoma
HOP-92 NSCLC = system: HOP-92 NSCLC
SW-620 colon = system: SW-620 colon
HCT-116 colon = system: HCT-116 colon
NCI-H460 lung = system: NCI-H460 lung
RXF 393 renal = system: RXF 393 renal
BT-549 breast = system: BT-549 breast
NCI-H23 lung = system: NCI-H23 lung
UACC-257 melanoma = system: UACC-257 melanoma
SK-MEL-2 melanoma = system: SK-MEL-2 melanoma
HT29 colon = system: HT29 colon
OVCAR-3 ovarian = system: OVCAR-3 ovarian
A498 renal = system: A498 renal
SK-MEL-5 melanoma = system: SK-MEL-5 melanoma
SF-539 CNS = system: SF-539 CNS
CCRF-CEM leukemia = system: CCRF-CEM leukemia
MALME-3M melanoma = system: MALME-3M melanoma
MCF7 breast = system: MCF7 breast
HCT-15 colon = system: HCT-15 colon
HL-60(TB) leukemia = system: HL-60(TB) leukemia
TK-10 renal = system: TK-10 renal
K-562 leukemia = system: K-562 leukemia
COLO 205 colon = system: COLO 205 colon
UACC-62 melanoma = system: UACC-62 melanoma
DU-145 prostate = system: DU-145 prostate
CAKI-1 renal = system: CAKI-1 renal
OVCAR-4 ovarian = system: OVCAR-4 ovarian
HCC-2998 colon = system: HCC-2998 colon
SK-OV-3 ovarian = system: SK-OV-3 ovarian
T-47D breast = system: T-47D breast
ACHN renal = system: ACHN renal
SF-295 CNS = system: SF-295 CNS
SN12C renal = system: SN12C renal
A549 NSCLC = system: A549 NSCLC
HOP-62 NSCLC = system: HOP-62 NSCLC
SNB-19 CNS = system: SNB-19 CNS
MOLT-4 leukemia = system: MOLT-4 leukemia
U251 CNS = system: U251 CNS
SF-268 CNS = system: SF-268 CNS
NCI-H226 lung = system: NCI-H226 lung
UO-31 renal = system: UO-31 renal
PC-3 prostate = system: PC-3 prostate
NCI/ADR-RES ovarian = system: NCI/ADR-RES ovarian
KM12 colon = system: KM12 colon
SR leukemia = system: SR leukemia
NCI-H522 lung = system: NCI-H522 lung
MDA-MB-231 breast = system: MDA-MB-231 breast
OVCAR-5 ovarian = system: OVCAR-5 ovarian
786-0 renal = system: 786-0 renal
EKVX NSCLC = system: EKVX NSCLC
OVCAR-8 ovarian = system: OVCAR-8 ovarian
HS 578T breast = system: HS 578T breast
RPMI-8226 leukemia = system: RPMI-8226 leukemia
LOX IMVI melanoma = system: LOX IMVI melanoma
MDA-N = system: MDA-N

CCOc1ccc(/C=C/C(=O)c2ccccc2)cc1
27.4 µM: TGI (HCT-116 colon)
35.2 µM: TGI (MALME-3M melanoma)
33.1 µM: TGI (UACC-257 melanoma)
14.9 µM: TGI (DU-145 prostate)
35 µM: TGI (SF-295 CNS)
30.1 µM: TGI (MDA-MB-435)
43.5 µM: TGI (SR leukemia)
30.7 µM: TGI (CAKI-1 renal)
21.1 µM: TGI (SW-620 colon)
80.8 µM: TGI (K-562 leukemia)
94.5 µM: TGI (HL-60(TB) leukemia)
75.2 µM: TGI (NCI-H226 lung)
47.1 µM: TGI (OVCAR-5 ovarian)
39.7 µM: TGI (IGROV1 ovarian)
34.9 µM: TGI (TK-10 renal) | TGI (ACHN renal) | TGI (NCI-H522 lung)
20.5 µM: TGI (RPMI-8226 leukemia)
51.4 µM: TGI (SNB-75 CNS)
48 µM: TGI (HCT-15 colon)
29.6 µM: TGI (HT29 colon)
34 µM: TGI (SNB-19 CNS)
38.9 µM: TGI (M14 melanoma)
23.6 µM: TGI (KM12 colon)
48.7 µM: TGI (T-47D breast)
29.7 µM: TGI (HCC-2998 colon)
36.5 µM: TGI (UACC-62 melanoma)
38.2 µM: TGI (SK-MEL-2 melanoma)
41.2 µM: TGI (HOP-92 NSCLC)
31.2 µM: TGI (SK-MEL-5 melanoma)
45.5 µM: TGI (SF-539 CNS)
30.6 µM: TGI (EKVX NSCLC)
62.4 µM: TGI (CCRF-CEM leukemia)
53.9 µM: TGI (A549 NSCLC)
39.1 µM: TGI (786-0 renal)
29.2 µM: TGI (RXF 393 renal)
72.8 µM: TGI (MDA-MB-231 breast)
37.2 µM: TGI (NCI-H23 lung)
94.9 µM: TGI (MOLT-4 leukemia)
21 µM: TGI (MCF7 breast)
60.5 µM: TGI (OVCAR-4 ovarian)
20.7 µM: TGI (U251 CNS)
32.4 µM: TGI (COLO 205 colon)
36.9 µM: TGI (SF-268 CNS)
56 µM: TGI (SK-OV-3 ovarian)
28 µM: TGI (UO-31 renal)
34.6 µM: TGI (OVCAR-8 ovarian)
61.4 µM: TGI (PC-3 prostate)
26.5 µM: TGI (LOX IMVI melanoma)
29.3 µM: TGI (OVCAR-3 ovarian)
56.3 µM: TGI (NCI/ADR-RES ovarian) | TGI (HS 578T breast)
41.6 µM: TGI (NCI-H460 lung)
39.6 µM: TGI (SK-MEL-28 melanoma)
37 µM: TGI (SN12C renal)
35.4 µM: TGI (HOP-62 NSCLC)
inactive: GI50 (SNB-75 CNS) 22.4 µM | GI50 (MDA-MB-435) 12 µM | GI50 (IGROV1 ovarian) 16.3 µM | GI50 (SK-MEL-28 melanoma) 19.8 µM | GI50 (M14 melanoma) 18.8 µM | GI50 (HOP-92 NSCLC) 19.6 µM | GI50 (SW-620 colon) 7.73 µM | GI50 (HCT-116 colon) 12.9 µM | GI50 (NCI-H460 lung) 19.5 µM | GI50 (RXF 393 renal) 15.2 µM | GI50 (BT-549 breast) 26.4 µM | GI50 (NCI-H23 lung) 16.9 µM | GI50 (UACC-257 melanoma) 16.1 µM | GI50 (SK-MEL-2 melanoma) 20.4 µM | GI50 (HT29 colon) 13.8 µM | GI50 (OVCAR-3 ovarian) 15.5 µM | GI50 (A498 renal) 16.2 µM | GI50 (SK-MEL-5 melanoma) 17.1 µM | GI50 (SF-539 CNS) 19.4 µM | GI50 (CCRF-CEM leukemia) 17.9 µM | GI50 (MALME-3M melanoma) 17.9 µM | GI50 (MCF7 breast) 4.12 µM | GI50 (HCT-15 colon) 14.6 µM | GI50 (HL-60(TB) leukemia) 25 µM | GI50 (TK-10 renal) 17.9 µM | GI50 (K-562 leukemia) 8.05 µM | GI50 (COLO 205 colon) 18 µM | GI50 (UACC-62 melanoma) 17 µM | GI50 (DU-145 prostate) 3.95 µM | GI50 (CAKI-1 renal) 14.1 µM | GI50 (OVCAR-4 ovarian) 21.5 µM | GI50 (HCC-2998 colon) 15.6 µM | GI50 (SK-OV-3 ovarian) 21.5 µM | GI50 (T-47D breast) 14.2 µM | GI50 (ACHN renal) 18.1 µM | GI50 (SF-295 CNS) 16.8 µM | GI50 (SN12C renal) 18.3 µM | GI50 (A549 NSCLC) 21.9 µM | GI50 (HOP-62 NSCLC) 18.1 µM | GI50 (SNB-19 CNS) 16.8 µM | GI50 (MOLT-4 leukemia) 18.6 µM | GI50 (U251 CNS) 7.19 µM | GI50 (SF-268 CNS) 18.7 µM | GI50 (NCI-H226 lung) 24.7 µM | GI50 (UO-31 renal) 14.1 µM | GI50 (PC-3 prostate) 23.9 µM | GI50 (NCI/ADR-RES ovarian) 18.3 µM | GI50 (KM12 colon) 10.7 µM | GI50 (SR leukemia) 8.5 µM | GI50 (NCI-H522 lung) 15.4 µM | GI50 (MDA-MB-231 breast) 26 µM | GI50 (OVCAR-5 ovarian) 19.3 µM | GI50 (786-0 renal) 20.6 µM | GI50 (EKVX NSCLC) 16 µM | GI50 (OVCAR-8 ovarian) 14.8 µM | GI50 (HS 578T breast) 20.4 µM | GI50 (RPMI-8226 leukemia) 3.95 µM | GI50 (LOX IMVI melanoma) 11.9 µM
62 µM: TGI (BT-549 breast)
33.2 µM: TGI (A498 renal)

CC(C)n1c(=O)n(-c2ccccc2)n(C(C)(C)C)c1=O
> 100 µM: TGI (SNB-75 CNS) | TGI (IGROV1 ovarian) | TGI (SK-MEL-28 melanoma) | TGI (M14 melanoma) | TGI (MDA-N) | TGI (HOP-92 NSCLC) | TGI (SW-620 colon) | TGI (HCT-116 colon) | TGI (NCI-H460 lung) | TGI (RXF 393 renal) | TGI (BT-549 breast) | TGI (NCI-H23 lung) | TGI (UACC-257 melanoma) | TGI (SK-MEL-2 melanoma) | TGI (HT29 colon) | TGI (OVCAR-3 ovarian) | TGI (A498 renal) | TGI (SK-MEL-5 melanoma) | TGI (SF-539 CNS) | TGI (CCRF-CEM leukemia) | TGI (MALME-3M melanoma) | TGI (MCF7 breast) | TGI (HCT-15 colon) | TGI (HL-60(TB) leukemia) | TGI (TK-10 renal) | TGI (K-562 leukemia) | TGI (COLO 205 colon) | TGI (UACC-62 melanoma) | TGI (CAKI-1 renal) | TGI (OVCAR-4 ovarian) | TGI (HCC-2998 colon) | TGI (SK-OV-3 ovarian) | TGI (ACHN renal) | TGI (SF-295 CNS) | TGI (SN12C renal) | TGI (A549 NSCLC) | TGI (HOP-62 NSCLC) | TGI (SNB-19 CNS) | TGI (MOLT-4 leukemia) | TGI (U251 CNS) | TGI (NCI-H226 lung) | TGI (UO-31 renal) | TGI (PC-3 prostate) | TGI (NCI/ADR-RES ovarian) | TGI (KM12 colon) | TGI (SR leukemia) | TGI (MDA-MB-231 breast) | TGI (OVCAR-5 ovarian) | TGI (786-0 renal) | TGI (EKVX NSCLC) | TGI (OVCAR-8 ovarian) | TGI (HS 578T breast) | TGI (LOX IMVI melanoma)

CC(=O)NC1=N/C(=C/c2cc([N+](=O)[O-])ccc2O)CN1C
> 100 µM: TGI (SNB-75 CNS) | TGI (MDA-MB-435) | TGI (IGROV1 ovarian) | TGI (SK-MEL-28 melanoma) | TGI (M14 melanoma) | TGI (MDA-N) | TGI (HOP-92 NSCLC) | TGI (SW-620 colon) | TGI (HCT-116 colon) | TGI (NCI-H460 lung) | TGI (BT-549 breast) | TGI (NCI-H23 lung) | TGI (UACC-257 melanoma) | TGI (SK-MEL-2 melanoma) | TGI (HT29 colon) | TGI (OVCAR-3 ovarian) | TGI (SK-MEL-5 melanoma) | TGI (SF-539 CNS) | TGI (MCF7 breast) | TGI (HCT-15 colon) | TGI (HL-60(TB) leukemia) | TGI (TK-10 renal) | TGI (COLO 205 colon) | TGI (UACC-62 melanoma) | TGI (DU-145 prostate) | TGI (CAKI-1 renal) | TGI (OVCAR-4 ovarian) | TGI (HCC-2998 colon) | TGI (SK-OV-3 ovarian) | TGI (T-47D breast) | TGI (ACHN renal) | TGI (SF-295 CNS) | TGI (SN12C renal) | TGI (A549 NSCLC) | TGI (HOP-62 NSCLC) | TGI (SNB-19 CNS) | TGI (MOLT-4 leukemia) | TGI (U251 CNS) | TGI (NCI-H226 lung) | TGI (UO-31 renal) | TGI (PC-3 prostate) | TGI (NCI/ADR-RES ovarian) | TGI (KM12 colon) | TGI (MDA-MB-231 breast) | TGI (OVCAR-5 ovarian) | TGI (786-0 renal) | TGI (EKVX NSCLC) | TGI (OVCAR-8 ovarian) | TGI (LOX IMVI melanoma)

Reference: PubChem BioAssay (NCI)
